“Also recorded” adds a separate entry of the source.
Experiments:
Tau2P = target: T1, Tau2P (Homo sapiens, UniProt P10636); assay: Fluorescence titration of BODIPY-Zn(Dpa) with Tau2P; assay type: binding; details: Tau 2P (i, i+4)
T1 construct: made in house; host or cells: chemical solid-phase synthesis
Description: (§1) The phosphorylated peptide-recognizing ability of BODIPY-Zn(Dpa) compound 9 (hereinafter referred to as BODIPY-Zn(Dpa)) was evaluated by measuring fluorescence spectra. Measurement was performed under the following conditions: [BODIPY-Zn(Dpa)]=5 μM; pH 7.2; 50 mM HEPES buffer; and 25° C. The excitation wavelength was λex=530 nm. […] When Tau2P was excessively added, this change reached saturation. The […] calculated from the fluorescence changes was 2.75×10^5 M^−1.

Tau1P = target: T2, Tau1P (Homo sapiens, UniProt P10636); assay: Fluorescence titration of BODIPY-Zn(Dpa) with Tau1P; assay type: binding
T2 construct: made in house; host or cells: chemical solid-phase synthesis
Description: as §1

Tau0P = target: T3, Tau0P (Homo sapiens, UniProt P10636); assay: Fluorescence titration of BODIPY-Zn(Dpa) with Tau0P; assay type: binding
T3 construct: made in house; host or cells: chemical solid-phase synthesis
Description: as §1

Tau204-2163P = target: T4, Tau204-2163P (Homo sapiens, UniProt P10636); assay: Fluorescence titration of BODIPY-Zn(Dpa) with Tau204-2163P; assay type: binding
T4 construct: made in house; host or cells: chemical solid-phase synthesis
Description: as §1
(§2) Fluorescence changes when peptide Tau204-2163P or Tau204-2162P used in Example 1 was added dropwise were measured to calculate the affinity (association constant).

Tau204-2162P = target: T5, Tau204-2162P (Homo sapiens, UniProt P10636); assay: Fluorescence titration of BODIPY-Zn(Dpa) with Tau204-2162P (i, i+6); assay type: binding
T5 construct: made in house; host or cells: chemical solid-phase synthesis
Description: as §1, §2

[1] = tested on: tau proteins on a tissue section; assay: Fluorescence staining of AD human hippocampal tissue sections treated with dephosphorylating enzyme (PP2A); details: PP2A 0.5 units/50 μL, 37° C., 24 h
Description: To investigate whether an excessively phosphorylated tau protein in brain tissues can be detected, a fluorescence staining experiment of hippocampal tissue sections from a human brain affected by Alzheimer (AD) and a normal brain was performed using BODIPY-Zn(Dpa). […]
Before staining, the sections were treated with a dephosphorylating enzyme (PP2A: 0.5 units/50 μL, 37° C., 24 h), and a fluorescence staining experiment for hippocampal tissue sections was performed according to the procedure in Example 2(12). […] Fluorescence dots observed in the BODIPY-Zn(Dpa) staining and the AT8 staining disappeared after dephosphorylating tau proteins on tissues with PP2A. […] The fluorescence dots in the BODIPY-Zn(Dpa) staining were detected depending on the phosphorylation of tau proteins.

[2] = target: T6, phosphorylated tau aggregate (p-Tau) (Homo sapiens, UniProt P10636); assay: Fluorescence staining of phosphorylated tau aggregate prepared in vitro; assay type: binding
T6 construct: made in house; host or cells: Escherichia coli
Description: Tau proteins (8 μM) expressed by Escherichia coli and heparin (1.6 μM) were incubated at 37° C. for 20 days to prepare a tau aggregate. A phosphorylated tau aggregate was similarly prepared using tau proteins phosphorylated with GSK-3β in vitro. The results of Pro-Q diamond staining after performing SDS-PAGE confirmed that the in-vitro phosphorylation was performed with a phosphorylation degree of 6 mol P/mol Tau.
10 μM BODIPY-Zn(Dpa) or 10 μM thioflavine T (may be referred to as ThT) were added to the prepared tau aggregate or phosphorylated tau aggregate. After the addition, the mixture was washed twice with 0.5 mM Zn(NO3)2, and a suspension (0.5 μL) of the stained phosphorylated tau aggregate was air-dried on a cover glass and observed under a confocal laser scanning microscope (OLYMPUS FV-1000, Obj. lens 100×).

tau aggregate = target: T7, tau aggregate (Homo sapiens, UniProt P10636); assay: Fluorescence titration of BODIPY-Zn(Dpa) against tau aggregate (EC50); assay type: binding; details: aggregate 1 μg/mL, 37° C., 30 min
T7 construct: made in house; host or cells: Escherichia coli
Description: (§3) BODIPY-Zn(Dpa) was titrated against a phosphorylated tau aggregate, a tau aggregate, and an amyloid β aggregate to obtain EC50 (a probe concentration at which a half value of the maximum change (ΔFmax) in fluorescence intensity is observed). BODIPY-Zn(Dpa) was titrated against an aggregate at a predetermined concentration (1 μg/mL), and changes in fluorescence intensity at each concentration (ΔF) were plotted. Using a solvent obtained by adding 10% DMSO and 100 μM Zn(NO3)2 to HBS (10 mM HEPES (pH 7.4), 150 mM NaCl), the solution was incubated at 37° C. for 30 min, and fluorescence was measured (excitation wavelength, 490 nm; fluorescence wavelength, 545 nm).

amyloid β aggregate = target: T8, amyloid β aggregate (Homo sapiens, UniProt P05067); assay: Fluorescence titration of BODIPY-Zn(Dpa) against amyloid β aggregate (EC50); assay type: binding; details: aggregate 1 μg/mL, 37° C., 30 min
T8 construct: (Aβ1-42) indicates amyloid β aggregate
Description: as §3

T6 sequence (P10636 1-441 isoform P10636-8): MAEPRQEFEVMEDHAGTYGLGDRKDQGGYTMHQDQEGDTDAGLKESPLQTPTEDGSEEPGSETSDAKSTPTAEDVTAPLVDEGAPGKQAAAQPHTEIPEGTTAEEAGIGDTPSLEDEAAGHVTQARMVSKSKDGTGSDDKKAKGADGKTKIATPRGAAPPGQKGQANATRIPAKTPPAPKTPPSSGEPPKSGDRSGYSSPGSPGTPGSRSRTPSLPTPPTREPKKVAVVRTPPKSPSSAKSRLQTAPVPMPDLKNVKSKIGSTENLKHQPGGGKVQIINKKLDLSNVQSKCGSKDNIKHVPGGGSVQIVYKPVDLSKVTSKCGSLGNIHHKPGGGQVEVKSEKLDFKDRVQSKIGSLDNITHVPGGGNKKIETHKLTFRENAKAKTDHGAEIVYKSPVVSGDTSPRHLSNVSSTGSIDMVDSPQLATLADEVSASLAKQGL
T7 sequence (P10636 1-441 isoform P10636-8): as above
T8 sequence (P05067 672-713 limits assumed): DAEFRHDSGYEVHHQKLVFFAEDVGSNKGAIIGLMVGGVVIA

CC1=C(c2ccc(CN(C)Cc3ccccn3)nc2)C(C)=[N+]2C1=C(c1cc(OCCOCCOCCO)cc(OCCOCCOCCO)c1)c1c(C)c(-c3ccc(CN(C)Cc4ccccn4)nc3)c(C)n1[B-]2(F)F.O=[N+]([O-])[O-].O=[N+]([O-])[O-].O=[N+]([O-])[O-].O=[N+]([O-])[O-].[Zn+2].[Zn+2] [BODIPY-Zn(Dpa)]
I/I0 - 1 at saturation (Tau2P; BODIPY-Zn(Dpa) 5 μM, pH 7.2, 25° C.): 0.55
Association constant (Tau2P; calculated from fluorescence changes): 275000 M⁻¹
I/I0 - 1 at saturation (Tau1P; Tau 1P): No change
fluorescence intensity change on addition of peptide (Tau1P; Tau1P, monophosphorylated): no major change was observed; also recorded: does not change
I/I0 - 1 at saturation (Tau0P; Tau 0P): No change
fluorescence intensity change on addition of peptide (Tau0P; Tau0P, unphosphorylated): no major change was observed
Association constant (Tau204-2163P; Tau204-216 3P (i, i+4, i+6)): 230000 M⁻¹
I/I0 - 1 at saturation (Tau204-2163P; Tau204-216 3P (i, i+4, i+6)): 0.25
detection of peptide by fluorescence change (Tau204-2163P; Tau204-2163P): could be detected
I/I0 - 1 at saturation (Tau204-2162P; Tau204-216 2P (i, i+6)): No change
detection of / interaction with peptide by fluorescence change (Tau204-2162P; Tau204-2162P (i, i+6)): could not be detected; also recorded: did not interact
fluorescence dots in staining image after PP2A treatment [1]: disappeared
fluorescence intensity after PP2A treatment compared with before [1]: significantly decreased
staining of aggregate ([2]; p-Tau in the presence of pyrophosphoric acid (PPi)): did not stain the aggregate
staining of aggregate ([2]; p-Tau, 10 μM dye): could bind to and stain the p-Tau aggregate
EC50 (tau aggregate): 0.08 µM
EC50 (amyloid β aggregate): 0.65 µM

— US8093060B2, “Multisite phosphorylated peptide (protein) recognizing compound and detection method, imaging method, alzheimer's disease diagnosing method and reagent kit using the same” (Canon Kabushiki Kaisha, priority 2008, dated 2012)
